On the set-up of data set [1]: method as in Brearley et al., 2017. Particulars: healthy volunteers; ref Brearley et al., 2017; cited from earlier work.
In data set [2] the target is T1, F508del CFTR (Homo sapiens, UniProt P13569, DEL508-508). Description: CSE-HRP assay (cell surface expression horseradish peroxidase assay). The data set is classed as cell-based. Particulars: 24 h treatment; for % F508del PM Expression vs control: VX809 rescue = 100%. Set-up: University of North Carolina; host or cells: primary human bronchial epithelial cells, F508del/F508del donors. On the procedure: CFBE41o^- TetON cells expressing HRP tagged F508del-CFTR ([Veit et al., 2012]) were seeded at a density of 2000 cells per well in white 384-well plates (Greiner). Medium containing 500 ng/ml doxycycline was used to induce expression of the F508del-CFTR–HRP construct. After 3 days, cells were treated with corrector and/or potentiator compounds and transferred to an incubator at 33°C. On day 4, cells were washed five times with PBS containing Ca^2+ and Mg^2+ using a Bio-Tek plate washer and incubated with a chemiluminescent HRP substrate (SuperSignal West Pico Chemiluminescent Substrate, Thermo Scientific) for 15 min. Chemiluminescence was measured using an Envision plate reader (Perkin Elmer).
T1 sequence (P13569 with tags, fused parts or gaps DEL508-508): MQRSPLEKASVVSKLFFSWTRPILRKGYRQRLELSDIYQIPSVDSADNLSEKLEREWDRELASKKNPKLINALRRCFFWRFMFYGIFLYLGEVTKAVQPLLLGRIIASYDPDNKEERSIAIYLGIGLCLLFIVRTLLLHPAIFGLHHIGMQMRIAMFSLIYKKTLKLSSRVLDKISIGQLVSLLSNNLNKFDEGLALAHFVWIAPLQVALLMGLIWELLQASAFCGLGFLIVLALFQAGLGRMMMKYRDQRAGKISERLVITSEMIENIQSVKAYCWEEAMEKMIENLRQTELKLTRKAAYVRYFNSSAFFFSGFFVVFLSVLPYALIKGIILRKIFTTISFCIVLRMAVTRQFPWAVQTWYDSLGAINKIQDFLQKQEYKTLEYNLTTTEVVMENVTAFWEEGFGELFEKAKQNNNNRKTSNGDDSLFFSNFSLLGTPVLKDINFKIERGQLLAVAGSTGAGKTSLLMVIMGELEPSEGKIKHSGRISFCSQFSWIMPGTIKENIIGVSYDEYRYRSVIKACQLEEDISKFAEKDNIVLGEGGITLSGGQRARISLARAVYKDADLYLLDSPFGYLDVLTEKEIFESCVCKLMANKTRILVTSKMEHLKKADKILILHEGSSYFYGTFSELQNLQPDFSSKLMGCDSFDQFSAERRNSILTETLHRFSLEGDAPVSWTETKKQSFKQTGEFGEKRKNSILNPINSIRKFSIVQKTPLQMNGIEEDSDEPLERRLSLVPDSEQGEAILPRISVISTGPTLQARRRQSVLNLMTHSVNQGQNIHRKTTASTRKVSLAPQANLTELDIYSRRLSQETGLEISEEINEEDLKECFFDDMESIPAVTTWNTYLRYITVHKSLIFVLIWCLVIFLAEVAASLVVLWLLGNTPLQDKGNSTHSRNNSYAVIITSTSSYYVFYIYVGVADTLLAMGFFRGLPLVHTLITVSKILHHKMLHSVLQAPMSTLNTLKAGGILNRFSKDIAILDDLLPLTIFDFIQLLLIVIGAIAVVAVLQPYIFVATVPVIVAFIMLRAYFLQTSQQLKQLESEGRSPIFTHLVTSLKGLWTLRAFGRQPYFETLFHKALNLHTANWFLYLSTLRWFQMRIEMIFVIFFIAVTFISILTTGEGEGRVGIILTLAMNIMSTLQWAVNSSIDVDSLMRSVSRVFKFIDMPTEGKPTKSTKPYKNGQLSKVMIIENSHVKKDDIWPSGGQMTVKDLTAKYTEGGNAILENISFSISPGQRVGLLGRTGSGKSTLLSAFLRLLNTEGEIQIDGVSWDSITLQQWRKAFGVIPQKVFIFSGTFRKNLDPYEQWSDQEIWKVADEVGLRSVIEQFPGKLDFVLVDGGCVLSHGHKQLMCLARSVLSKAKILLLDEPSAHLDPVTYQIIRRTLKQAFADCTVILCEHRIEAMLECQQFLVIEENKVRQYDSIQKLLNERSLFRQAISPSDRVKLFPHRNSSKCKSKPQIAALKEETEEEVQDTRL
(§1) To discover novel correctors several high throughput screening campaigns were performed using cell based assays measuring plasma membrane expression of the F508del CFTR protein. The CSE-HRP system used CFBE41O-cells, a lung epithelial cell line, stably transfected with F508del CFTR tagged with HRP in the fourth extracellular loop ([Veit et al., 2014]). The CSE-MEM system, used U2OS cells, an osteosarcoma epithelial cell line, stably transfected with F508del CFTR tagged with a Pro-link moiety at the C-terminal and a plasma membrane located EA (enzyme acceptor) moiety. The latter cells were created by DiscoverX and the assay further optimized to allow robust evaluation in a high throughput manner.
For screening, cells were pre-incubated with compound for 24 h prior to read-out to allow sufficient time for de novo synthesis, and cellular trafficking of F508del-CFTR to reach steady state levels at the plasma membrane. A diverse set of 105,000 small molecules was screened in both cell assays in presence and absence of a fixed concentration (3 μM) of VX809. For the identification of suitable starting points we primarily focused on hits that increased the F508del CFTR surface expression under all conditions as exemplified by compound HIT1.

Data set [3] has as its target T1, F508del CFTR. As to the kind of experiment: CSE-MEM assay (cell surface expression DiscoverX assay). Particulars: 24 h treatment; for % F508del PM Expression vs control: VX809 rescue = 100%. The data set is classed as cell-based. Further details: University of North Carolina; host or cells: primary human bronchial epithelial cells, F508del/F508del donors. The protocol: Twenty-five microliters of cell plating reagent 5 (DiscoverX, 93-0563R5A) containing 5000 U2OS EA-MEM F508del_CFTR cells per well was added in white 384 well plates (Greiner, 781080) on day 1 and incubated overnight at 37°C, 5% CO2. On day 2, medium was refreshed and compounds (1 μl of 26 × concentrated solution) were added to the cells. All compounds used during the experiment were first dissolved in DMSO to a 10 mM solution which was then diluted to a 26 × solution in the medium just prior to the experiment. Cells were incubated with compounds for 20–24 h at 37°C, 5% CO2. On day 3, the plates were first incubated at room temperature for 1 h. After 1 h the plates were washed two times with PBS +/+ (Gibco, 14040-091) and 30 μL PBS +/+ (Gibco, 14040-091) was added after the last wash step. Then 15 μL of substrate (DiscoverX, 93-0247: 1 part Flash cell assay buffer + 4 parts Flash substrate) was added per well. After 1 h of incubation at room temperature in the dark, the luminescence signal was read on an EnVision plate reader (PerkinElmer).
as §1
For screening, cells were pre-incubated with compound for 24 h prior to read-out to allow sufficient time for de novo synthesis, and cellular trafficking of F508del-CFTR to reach steady state levels at the plasma membrane. […]

Here are results for one compound from PMC6521598, “Identification of GLPG/ABBV-2737, a Novel Class of Corrector, Which Exerts Functional Synergy With Other CFTR Modulators” (Frontiers in Pharmacology, 2019).

Broadly, the EC50 is the concentration needed to bring the measured effect to its halfway point. Take `COC1CCN(C2CCN(c3cc(C(=O)NS(=O)(=O)N(C)C)nc4c3c(C3CCC3)nn4-c3ccc(F)cc3)CC2)CC1` [GLPG2737]: the “observed exposure in humans” value in data set [1] was “dose linear”. The “% F508del PM Expression vs control” value at F508del CFTR [2] (+ 3 μM VX809) is 416%; on F508del CFTR [2] (no co-corrector), 264%; on F508del CFTR [3] (+ 3 μM VX809), 415%; on F508del CFTR [3] (no co-corrector) it was 197%. Also, the EC50 on F508del CFTR [2] (no co-corrector) was determined as 809 nM; on F508del CFTR [3] (no co-corrector), 707 nM.
